Data from patent publication US20210220408A1, “ARYL HYDROCARBON RECEPTOR ANTAGONISTS AND METHODS OF USE” (Magenta Therapeutics Inc., priority 2018, published 2021).
pEC50, pIC50: −log10 of the molar value.

Legend:
[1] = system: mobilized peripheral blood CD34+ cells; experiment: CD34+ expansion assay; format: cell-based; conditions: Homo sapiens; read-out: CD34 Frequency EC50
Method: Approximately 3,000 mobilized peripheral blood CD34+ cells were plated per well in 384-well plate at a final volume of 45 μL in HSC growth media (SFEM supplemented with Pen/Strep, 50 ng/mL FLT3L, TPO, SCF and IL-6). Serial dilutions were made in HSC growth media with a top final concentration of 10 μM. 5 μL 10× stock was added to each well. The plate was gently tapped on all sides and incubated for 7 days at 37° C./5% CO2. On day 7, the media was aspirated on a Biotek plate washer and 30 μL staining solution was added to the cells with antibodies against CD34-PE, CD90-APC, CD45RA-PE-CF594 in PBS. Cells were washed once in PBS and resuspended in 80 μL for final volume. 40 μL was acquired by flow cytometry (BD Celesta).

[2] = molecular target: T1, aryl hydrocarbon receptor (AHR) (Homo sapiens, UniProt P35869); experiment: DRE-Luciferase reporter high-throughput screen (AHR antagonist, VAF347-activated)
T1 sequence (P35869 11-848): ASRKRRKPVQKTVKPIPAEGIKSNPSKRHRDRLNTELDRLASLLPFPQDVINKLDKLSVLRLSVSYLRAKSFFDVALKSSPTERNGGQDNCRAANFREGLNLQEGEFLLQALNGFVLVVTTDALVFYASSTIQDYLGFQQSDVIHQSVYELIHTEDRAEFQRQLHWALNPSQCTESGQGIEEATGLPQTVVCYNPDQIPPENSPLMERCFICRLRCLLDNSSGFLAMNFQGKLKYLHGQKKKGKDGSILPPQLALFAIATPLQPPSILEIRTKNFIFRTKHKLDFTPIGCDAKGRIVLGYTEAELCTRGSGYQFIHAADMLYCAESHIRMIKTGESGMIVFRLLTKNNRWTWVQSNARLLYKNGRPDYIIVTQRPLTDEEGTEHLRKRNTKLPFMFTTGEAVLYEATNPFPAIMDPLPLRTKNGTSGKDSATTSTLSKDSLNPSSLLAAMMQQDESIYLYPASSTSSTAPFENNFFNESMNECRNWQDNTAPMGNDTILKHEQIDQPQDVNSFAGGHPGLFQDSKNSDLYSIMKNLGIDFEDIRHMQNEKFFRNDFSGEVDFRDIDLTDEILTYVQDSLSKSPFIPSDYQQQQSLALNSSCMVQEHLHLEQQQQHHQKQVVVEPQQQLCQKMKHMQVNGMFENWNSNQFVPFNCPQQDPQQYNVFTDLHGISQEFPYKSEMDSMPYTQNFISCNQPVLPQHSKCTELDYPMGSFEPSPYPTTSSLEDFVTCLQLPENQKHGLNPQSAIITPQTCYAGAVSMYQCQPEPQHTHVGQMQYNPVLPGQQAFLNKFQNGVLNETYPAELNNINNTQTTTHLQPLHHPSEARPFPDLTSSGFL

| pEC50 [1] | pIC50 [2] | Structure (SMILES) |
| --- | --- | --- |
| 6.00 to 6.30 | 6.30 to 6.70 | COc1cc(C(F)(F)F)ccc1C(=O)Nc1cccc(N2CCOCC2)c1 [compound 1] |
| 6.00 to 6.30 | 6.00 to 6.30 | Cc1cccc(C(=O)Nc2ccc(-c3nc4ncccc4o3)cc2)c1 [compound 4] |
| 5.30 to 6.00 | 6.00 to 6.30 | Cn1cnnc1Sc1ccc(NC(=O)c2cc(Br)ccc2F)cc1 [compound 7] |
| 5.30 to 6.00 | 6.00 to 6.30 | Cc1ccc(C(=O)Nc2ccc(-c3nccs3)cc2)cc1 [compound 8] |
| ≤ 5.30 | 6.00 to 6.30 | CCCCOc1ccc(C(=O)Nc2cccc(C(=O)OCC(C)C)c2)cc1 [compound 9] |
| > 6.30 | 6.00 to 6.30 | CSc1ccccc1C(=O)Nc1ccc2[nH]c(-c3ccc(F)cc3)nc2c1 [compound 13] |
| > 6.30 | > 6.70 | COc1ccc(C(=O)Nc2ccc3c(c2)oc2ccccc23)cc1[N+](=O)[O-] [compound 14] |
| > 6.30 | > 6.70 | Cc1ccc2nc3sc(C(=O)Nc4cccc(C(F)(F)F)c4)cc3c(=O)n2c1 [compound 15] |
| 6.00 to 6.30 | 6.30 to 6.70 | Cc1ccc(NC(=O)c2cn3ccccc3n2)cc1 [compound 21] |
| 6.00 to 6.30 | 6.30 to 6.70 | O=C(Nc1ccccc1Cl)c1cnc(-c2noc3ccccc23)s1 [compound 23] |
| 6.00 to 6.30 | 6.30 to 6.70 | O=C(Nc1ccc(-c2nnc3n2CCCCC3)cc1)c1cccc2cccnc12 [compound 24] |
| 5.30 to 6.00 | 6.00 to 6.30 | CC(C)(C)c1ccc(O)c(NC(=O)c2cnc3ccccn3c2=O)c1 [compound 27] |
| ≤ 5.30 | 6.00 to 6.30 | CC(=O)N(C)Cc1cccc(NC(=O)c2n[nH]c3ccccc23)c1 [compound 30] |
| ≤ 5.30 | > 6.70 | COC(=O)c1sc(NC(=O)c2cc(C)n(C)n2)cc1C [compound 41] |
| 6.00 to 6.30 | > 6.70 | Cc1noc(C)c1C(=O)Nc1ccc2oc(-c3cc(F)ccc3Br)nc2c1 [compound 45] |
| 6.00 to 6.30 | 6.30 to 6.70 | O=C(Nc1ccc(N2CCCC2)nc1)c1cc2c(F)cccc2s1 [compound 46] |
| 6.00 to 6.30 | 6.00 to 6.30 | Nc1c(-c2nc(-c3ccccc3)cs2)nnn1-c1ccc(F)cc1 [compound 53] |
| 6.00 to 6.30 | 6.30 to 6.70 | c1ccc(-c2nnc(-c3csc(-c4cccnc4)n3)o2)cc1 [compound 57] |
| 5.30 to 6.00 | 6.00 to 6.30 | Cc1ccn2c(-c3csc(Nc4ccccn4)n3)c(C)nc2c1 [compound 60] |
| 5.30 to 6.00 | 6.00 to 6.30 | CCN(C)C(=O)c1cnc(-c2noc3ccccc23)s1 [compound 65] |
| 6.00 to 6.30 | 6.30 to 6.70 | O=[N+]([O-])c1ccc(-c2cn3nc(C(F)(F)F)sc3n2)cc1 [compound 68] |
| 6.00 to 6.30 | 6.30 to 6.70 | Cc1cn2nc(NCCOc3ccc(F)cc3)sc2n1 [compound 70] |
| 6.00 to 6.30 | 6.30 to 6.70 | CC(C)c1cc(-c2nnc3sc(-c4ccccn4)nn23)[nH]n1 [compound 72] |
| 5.30 to 6.00 | 6.30 to 6.70 | CCOC(=O)N1CCN(c2nc(CC)nc3sc(C)cc23)CC1 [compound 75] |
| ≤ 5.30 | 6.00 to 6.30 | Fc1ccc(/C=N\N2CCN(c3ccccn3)CC2)cc1 [compound 77] |
| 6.00 to 6.30 | > 6.70 | Fc1ccc(-c2cc(-c3ccccc3)nc(-n3cccn3)n2)cc1 [compound 82] |
| > 6.30 | 6.00 to 6.30 | N#Cc1ccc(-c2ccncc2)nc1SCc1ccccn1 [compound 89] |
| > 6.30 | 6.30 to 6.70 | N#Cc1cn(-c2ccc(Cl)cc2)nc1C(=O)c1cccs1 [compound 91] |
| ≤ 5.30 | 6.00 to 6.30 | Nc1cc(-c2ccc3c(c2)CCCC3)nn1-c1ccccc1 [compound 92] |
| – | 6.00 to 6.30 | O=c1[nH]nc(CNc2ccc(Cl)cc2Cl)c2ccccc12 [compound 156] |

More lines, now with the values behind:

| Structure (SMILES) | pEC50 [1] | pIC50 [2] |
| --- | --- | --- |
| N#Cc1ccc(C(=O)Nc2cc(C(F)(F)F)ccc2Cl)c(F)c1 [compound 2] | 6.00 to 6.30 | 6.30 to 6.70 |
| Cc1ccc(NC(=O)c2cccc(OCc3c(C)noc3C)c2)c(Cl)c1 [compound 3] | 6.00 to 6.30 | 6.30 to 6.70 |
| Cc1ccc(Nc2ccc(NC(=O)c3ccc(-c4ccccc4)cc3)cc2)nn1 [compound 5] | 5.30 to 6.00 | 6.00 to 6.30 |
| COc1ccccc1C(=O)Nc1cccc(-c2cn3ccsc3n2)c1 [compound 6] | 5.30 to 6.00 | 6.00 to 6.30 |
| COc1c(C)cccc1C(=O)Nc1cc(-c2ccc(F)cc2)nn1C [compound 11] | 5.30 to 6.00 | 6.00 to 6.30 |
| O=C(Nc1ccc2ccccc2n1)c1ccccc1Cl [compound 12] | 6.00 to 6.30 | 6.00 to 6.30 |
| CCCSc1nc(N)c(C(=O)Nc2ccccc2)cc1C#N [compound 16] | > 6.30 | 6.30 to 6.70 |
| CC(C)n1nnc2cc(C(=O)Nc3ccc(Cl)cc3)ccc21 [compound 17] | > 6.30 | 6.00 to 6.30 |
| COc1cccc(NC(=O)c2cc3c(=O)n4ccccc4nc3n2C)c1 [compound 18] | > 6.30 | 6.30 to 6.70 |
| Cc1ccc(NC(=O)c2sc3nc(N)c(C#N)cc3c2N)cc1Cl [compound 19] | > 6.30 | > 6.70 |
| Cc1cccc(NC(=O)c2cc(-c3ccc(C)cc3O)n[nH]2)c1 [compound 20] | 6.00 to 6.30 | 6.00 to 6.30 |
| COc1ccc(NC(=O)c2nnn(-c3cc(C)cc(C)c3)c2C)c(OC)c1 [compound 22] | 6.00 to 6.30 | 6.00 to 6.30 |
| Cc1noc(C)c1C(=O)Nc1ccc(-c2nc3ccccc3o2)cc1 [compound 25] | 6.00 to 6.30 | 6.30 to 6.70 |
| Cc1cc(Oc2ncccc2C#N)ccc1NC(=O)c1oc(Br)cc1C [compound 26] | 5.30 to 6.00 | 6.30 to 6.70 |
| COc1ccc(-n2nnc(C(=O)Nc3ccccc3C(F)(F)F)c2N)cc1 [compound 28] | 5.30 to 6.00 | 6.30 to 6.70 |
| Cc1ccc(C)c(NC(=O)c2nc3c(s2)CCCN3c2ccc(C)nn2)c1 [compound 29] | 5.30 to 6.00 | 6.00 to 6.30 |
| CCc1cc(C(=O)Nc2ccc(SC)cc2)sc1C [compound 38] | 5.30 to 6.00 | 6.00 to 6.30 |

| Structure (SMILES) | pEC50 [1] | pIC50 [2] |
| --- | --- | --- |
| Cc1ccc(-c2c(C)sc(NC(=O)c3cccnc3)c2C(N)=O)cc1 [compound 42] | 5.30 to 6.00 | 6.00 to 6.30 |
| CCc1ccc(C(=O)Nc2scc(-c3ccc(Cl)cc3)c2C(N)=O)s1 [compound 43] | 6.00 to 6.30 | 6.30 to 6.70 |
| CCC(=O)N1CCc2cc(C(=O)Nc3ccn(CCc4ccccn4)n3)ccc21 [compound 47] | 5.30 to 6.00 | 6.00 to 6.30 |
| Cc1ccc(-c2csc(-c3ccncc3)n2)c(C)c1 [compound 52] | 5.30 to 6.00 | 6.00 to 6.30 |
| O=c1[nH]c2ccc(-c3csc(-c4ccccn4)n3)cc2[nH]1 [compound 58] | ≤ 5.30 | 6.00 to 6.30 |
| COc1ccc(Nc2nc(-c3ccccn3)cs2)cc1 [compound 59] | > 6.30 | 6.00 to 6.30 |
| Cc1nn2cc(-c3ccc(-c4ccccc4)cc3)nc2s1 [compound 69] | 6.00 to 6.30 | 6.30 to 6.70 |
| Cc1cc(-c2nnc3sc(-c4ccc(F)cc4)nn23)[nH]n1 [compound 71] | 6.00 to 6.30 | 6.00 to 6.30 |
| Cn1nc(C(C)(C)C)cc1-c1nn2c(-c3cccs3)nnc2s1 [compound 73] | 5.30 to 6.00 | 6.00 to 6.30 |
| CC(=O)N1CCN(c2nc3cc(C(F)(F)F)ccc3s2)CC1 [compound 74] | 5.30 to 6.00 | 6.00 to 6.30 |
| FC(F)(F)c1nc(N2CCN(c3ncccn3)CC2)c2ccccc2n1 [compound 76] | ≤ 5.30 | 6.30 to 6.70 |
| Cc1ccc2cc(C(=O)N3CCN(S(=O)(=O)c4cccs4)CC3)[nH]c2c1 [compound 78] | ≤ 5.30 | 6.00 to 6.30 |
| N#Cc1cccc(C#N)c1N1CCN(C(=O)Nc2ccccc2)CC1 [compound 79] | ≤ 5.30 | 6.00 to 6.30 |
| Cc1cnn(-c2nc(-c3ccc(F)cc3)cc(C(F)(F)F)n2)c1 [compound 83] | > 6.30 | > 6.70 |
| N#Cc1nc(NCC(O)c2ccc(OC(F)F)cc2)ccc1Cl (stereo not shown) [compound 88] | 5.30 to 6.00 | 6.30 to 6.70 |
| O=[N+]([O-])c1cc(C(F)(F)F)ccc1Oc1ccc(-c2noc(-c3ccccc3F)n2)cc1 [compound 157] | – | 6.00 to 6.30 |
